Laboratory results: patent US20190375778A1, “ADENOSINE DERIVATIVES FOR USE IN THE TREATMENT OF CANCER” (NuCana plc, priority 2016, published 2019)
Where two headings read alike, the source gives them in different places.

What was measured:
Assay type in all cases: cell-based
Z138 = assay: CellTiterGlo viability assay, Z138; details: for IC50: read-out: IC50 Z138
Method: (§1) In vitro viability assay were performed to assess the effects of compounds on cell viability in selected cell lines over ˜72 hrs using the CellTiterGlo (CTG, Promega-G7573) assay. The tests were performed in duplicates with treatment of compounds at 9 points, 3.16 folds titration in 96 well plates over ˜72 hrs. The compound starting concentrations were 198 μM. Cell viability assay using CellTiterGlo in 96-well plate were performed. Compound treatment 72 hrs, standard growth conditions, duplicates. Compounds were dissolved to 40 mM with thawed […]. Compounds were serially diluted at 3.16 fold in thawed DMSO, and warmed to 37° C. before being dissolved in media (2 μl+200 μl). After compounds were dissolved in media, media containing compounds were warmed to 37° C. in incubator and then compounds in media were added to cell plates (50 μl+50 μl) in duplicates. The compounds' final concentrations were from […] to 19.9 nM. All compound solubilities were checked and recorded again, then the plates were transferred to CO2 tissue culture incubator immediately and incubated for 3 days. DMSO final concentration is 0.5%.

RL = assay: CellTiterGlo viability assay, RL; details: for IC50: read-out: IC50 RL
Summary of the method: (§2)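 Each cell line treated ~72 h under standard growth conditions, in duplicate, with 9-point 3.16-fold titrations; final concentrations from 198 μM down to 19.9 nM, 0.5% DMSO. Viability read by CellTiterGlo luminescence.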

K562 = assay: CellTiterGlo viability assay, K562; details: for IC50: read-out: IC50 K562
Summary of the method: as §2

MiaPaCa-2 = assay: CellTiterGlo viability assay, MiaPaCa-2; details: for IC50: read-out: IC50 MiaPaCa-2
Method: as §1

MCF7 = assay: CellTiterGlo viability assay, MCF7; details: for IC50: read-out: IC50 MCF7
Method: as §1

Murine leukemia L1210 = assay: Cell proliferation (Coulter count) assay, L1210; details: Mus musculus, 48 h, read-out: absolute IC50, L1210
Summary of the method: (§3)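 Cells grown in DMEM with 10% FBS. HeLa seeded at 10 000 cells/well, compound added after 24 h, counted day 5; L1210 and CEM seeded at 60 000 cells/well with compound, counted after 48 h and 72 h respectively. IC50 is concentration halving proliferation by Coulter count.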

human T-lymphocyte CEM = assay: Cell proliferation (Coulter count) assay, CEM; details: 72 h, read-out: absolute IC50, CEM
Summary of the method: as §3

Jurkat = assay: CellTiterGlo viability assay, Jurkat; details: Homo sapiens, read-out: IC50 Jurkat
Method: as §1

HS445 = assay: CellTiterGlo viability assay, HS445; details: for IC50: read-out: IC50 HS445
Method: as §1

KG-1 = assay: CellTiterGlo viability assay, KG-1; details: Homo sapiens, read-out: IC50 KG-1
Summary of the method: as §2

NCI-H929 = assay: CellTiterGlo viability assay, NCI-H929; details: Homo sapiens, read-out: IC50 NCI-H929
Summary of the method: as §2

MV4-11 = assay: CellTiterGlo viability assay, MV4-11; details: Homo sapiens, read-out: IC50 MV4-11
Summary of the method: as §2

SW620 = assay: CellTiterGlo viability assay, SW620; details: Homo sapiens, read-out: IC50 SW620
Method: as §1

[1] = Homo sapiens, Z-138, CellTiterGlo, 72 hrs
[2] = Homo sapiens, RL, CellTiterGlo, 72 hrs
[3] = Homo sapiens, K562, CellTiterGlo, 72 hrs
[4] = Homo sapiens, MIA PaCa-2, CellTiterGlo, 72 hrs
[5] = Homo sapiens, MCF7, CellTiterGlo, 72 hrs

Structure (SMILES)	IC50 (Z138; Homo sapiens, Z-138, 72 h)	IC50 (RL; Homo sapiens, RL, 72 h)	IC50 (K562; Homo sapiens, K562, 72 h)	IC50 (MiaPaCa-2; Homo sapiens, MIA PaCa-2, 72 h)	IC50 (MCF7; Homo sapiens, MCF7, 72 h)	IC50 (Murine leukemia L1210)	IC50 (human T-lymphocyte CEM)	IC50 (Jurkat; 72 h)	IC50 (HS445; Hs 445, 72 h)	IC50 (KG-1; KG-1, 72 h)	IC50 (NCI-H929; NCI-H929, 72 h)	IC50 (MV4-11; MV4-11, 72 h)	IC50 (SW620; SW-620, 72 h)	IC50 (Z138; [1])	IC50 (RL; [2])	IC50 (K562; [3])	IC50 (MiaPaCa-2; [4])	IC50 (MCF7; [5])	IC50 (Jurkat; CellTiterGlo, 72 hrs)	IC50 (HS445; Hs 445, CellTiterGlo, 72 hrs)	further results
Nc1ncnc2c1nc(Cl)n2[C@@H]1O[C@H](COP(=O)(NCC(=O)OC2CCCCC2)Oc2ccccc2)[C@@H](O)[C@H]1O (mixture of isomers) [Compound A, Cyclohexyl 2-(((((2R,3S,4R,5R)-5-(6-amino-8-chloro-9H-purin-9-yl)-3,4-dihydroxy-tetrahydrofuran-2-yl)methoxy)(phenoxy)phosphoryl)amino)acetate]	0.1 to 5 µM	5 to 15 µM	5 to 15 µM	5 to 15 µM	15 to 100 µM	15 to 100 µM	15 to 100 µM	15 to 100 µM	> 100 µM	> 100 µM	15 to 100 µM	0.1 to 5 µM	15 to 100 µM								
C[C@H](NP(=O)(OC[C@H]1O[C@@H](n2c(Cl)nc3c(N)ncnc32)C(O)C1O)Oc1cccc2ccccc12)C(=O)OCc1ccccc1 (stereo partly drawn) [Compound D, (2S)-Benzyl 2-(((((2R,3S,4R,5R)-5-(6-amino-8-chloro-9H-purin-9-yl)-3,4-dihydroxy-tetrahydrofuran-2-yl)methoxynaphthalene-1-yloxy)phosphoryl)amino)propanoate]	0.1 to 5 µM	5 to 15 µM	0.1 to 5 µM	0.1 to 5 µM	0.1 to 5 µM	5 to 15 µM	0.1 to 5 µM	0.1 to 5 µM	5 to 15 µM	5 to 15 µM	0.1 to 5 µM	0.1 to 5 µM	0.1 to 5 µM								
Nc1ncnc2c1nc(Cl)n2[C@@H]1O[C@H](CO)[C@@H](O)[C@H]1O [8-chloroadenosine, 8-Chloroadenosine, reference compound]						0.1 to 5 µM	0.1 to 5 µM							0.1 to 5 µM	5 to 15 µM	0.1 to 5 µM	0.1 to 5 µM	0.1 to 5 µM	0.1 to 5 µM	5 to 15 µM	Top in. % Z-138 (Z138): 88.7%; EC50 (Z138; Homo sapiens, Z-138, read-out: Ab EC50 (μM) Z-138): 1.44 µM; Top in. % RL (RL): 87.3%; EC50 (RL; Homo sapiens, RL, read-out: Ab EC50 (μM) RL): 4.39 µM; Top in. % K562 (K562): 82.0%; EC50 (K562; Homo sapiens, K562, read-out: Ab EC50 (μM) K562): 11.8 µM; Top in. % MiaPa-Ca-2 (MiaPaCa-2): 86.2%; EC50 (MiaPaCa-2; Homo sapiens, MIA PaCa-2, read-out: Ab EC50 (μM) MiaPa-Ca-2): 0.44 µM; Top in. % MCF7 (MCF7): 79.6%; EC50 (MCF7; Homo sapiens, MCF7, read-out: Ab EC50 (μM) MCF7): 1.33 µM; Top in. % HS445 (HS445): 78.1%; EC50 (HS445; Hs 445, read-out: Ab EC50 (μM) HS445): 4.5 µM; IC50 (KG-1; KG-1, CellTiterGlo, 72 hrs): 0.1 to 5 µM; IC50 (NCI-H929; NCI-H929, CellTiterGlo, 72 hrs): 0.1 to 5 µM; IC50 (MV4-11; MV4-11, CellTiterGlo, 72 hrs): 0.1 to 5 µM; IC50 (SW620; SW-620, CellTiterGlo, 72 hrs): 0.1 to 5 µM
Nc1ncnc2c1nc(Cl)n2[C@@H]1O[C@H](COP(=O)(NCC(=O)OCc2ccccc2)NCC(=O)OCc2ccccc2)C(O)C1O (stereo partly shown) [Compound AC, 8-Chloroadenosine 5′-O-bis(benzyloxy-glycin-N-yl) phosphate]						0.1 to 5 µM	0.1 to 5 µM							0.1 to 5 µM	0.1 to 5 µM	0.1 to 5 µM	0.1 to 5 µM	0.1 to 5 µM	0.1 to 5 µM	5 to 15 µM	IC50 (KG-1; KG-1, CellTiterGlo, 72 hrs): 0.1 to 5 µM; IC50 (NCI-H929; NCI-H929, CellTiterGlo, 72 hrs): 0.1 to 5 µM; IC50 (MV4-11; MV4-11, CellTiterGlo, 72 hrs): 0.1 to 5 µM; IC50 (SW620; SW-620, CellTiterGlo, 72 hrs): 0.1 to 5 µM
